Assay results published in PMC7754465, “Multiparameter Kinetic Analysis for Covalent Fragment Optimization by Using Quantitative Irreversible Tethering (qIT)” (Chembiochem, 2020).

Target: His-Cdk2(F80C,C177A,D145N) (Homo sapiens, UniProt P24941, C177A/D145N/F80C)
Assay: qIT assay with His-Cdk2(F80C,C177A,D145N)
Assay type: binding
Settings: acrylamide 69 0.5 mM, thiol 5 µM
Description: site that is normally occupied by the adenosine core of ATP. Indeed, the methyl ester engages in a hydrogen-bonding interaction with the backbone amide of Leu83, mimicking the pyrimidine pharmacophore of ATP, while the acrylamide carbonyl itself is hydrogen bonded to the ε-amine of Lys32.
Next the 57-Cdk2(F80C,C177A) conjugate was prepared and crystallised by heterogeneous microseeding in an analogous manner. This complex diffracted to 2.0 GS H Å […]
Although acrylamide Cdk2(F80C,C177A,D145N) 57 could be O […]
modelled into the electron density map with a cov1.25 alent bond to Cys80, the ligand-binding mode was less clearly defined (Figure 72b). It is postulated that either the ligand binds in N […]
multiple unresolved modes or that the protein was not fully modified such that the ligand 69 […]
clin A2 to form active holoenzymes. The holoenzymes were incubated with peptide substrate, ATP, NADH, PEP, LD and PK Tim e ( h) ! at 37 °C and the absorbance measured over time in clear 384-well plates. Kinase activity is determined from the gradient of Figure the absorbance over time (between 100084. Fluorescence data (normalised against DMSO –3000 s) and normalised relative to pCdk2(WT) = 100% and cyclin A2 only = 0% (n = control) from qIT assay for acrylamide […]
glutathione (5 µM). Vertical error bars represent the standard deviation of fluorogenic thiol quantifications, performed in duplicate. […]

k, thiol Cdk2(F80C,C177A,D145N): 0.23 h–1
Structure (SMILES): C=CC(=O)N1CCN(CC)c2ccccc21 [compound 6]
